In patent US9458184B2, “Compositions of TLR7 and/or TLR8 agonists conjugated to lipids” (CAYLA, priority 2012, dated 2016):

Assays:
plasmid DNA = assay type: physicochemical
human HEK293 cell line = assay: Cell transfection with SEAP plasmid, HEK293; assay type: cell-based; details: complexed with pVitro14 LGFP SEAP plasmid, HEK293, 48 hours
[1] = system: mouse B16 melanoma cell line; assay: Cell transfection with SEAP plasmid, B16; assay type: cell-based; details: complexed with pVitro14 LGFP SEAP plasmid, B16, 48 hours
human TLR7 = biological target: T1, human TLR7 (Homo sapiens, UniProt Q9NYK1); assay: HEK-Blue hTLR7 NF-κB/AP-1 SEAP reporter cell assay
T1 sequence (Q9NYK1 27-1049): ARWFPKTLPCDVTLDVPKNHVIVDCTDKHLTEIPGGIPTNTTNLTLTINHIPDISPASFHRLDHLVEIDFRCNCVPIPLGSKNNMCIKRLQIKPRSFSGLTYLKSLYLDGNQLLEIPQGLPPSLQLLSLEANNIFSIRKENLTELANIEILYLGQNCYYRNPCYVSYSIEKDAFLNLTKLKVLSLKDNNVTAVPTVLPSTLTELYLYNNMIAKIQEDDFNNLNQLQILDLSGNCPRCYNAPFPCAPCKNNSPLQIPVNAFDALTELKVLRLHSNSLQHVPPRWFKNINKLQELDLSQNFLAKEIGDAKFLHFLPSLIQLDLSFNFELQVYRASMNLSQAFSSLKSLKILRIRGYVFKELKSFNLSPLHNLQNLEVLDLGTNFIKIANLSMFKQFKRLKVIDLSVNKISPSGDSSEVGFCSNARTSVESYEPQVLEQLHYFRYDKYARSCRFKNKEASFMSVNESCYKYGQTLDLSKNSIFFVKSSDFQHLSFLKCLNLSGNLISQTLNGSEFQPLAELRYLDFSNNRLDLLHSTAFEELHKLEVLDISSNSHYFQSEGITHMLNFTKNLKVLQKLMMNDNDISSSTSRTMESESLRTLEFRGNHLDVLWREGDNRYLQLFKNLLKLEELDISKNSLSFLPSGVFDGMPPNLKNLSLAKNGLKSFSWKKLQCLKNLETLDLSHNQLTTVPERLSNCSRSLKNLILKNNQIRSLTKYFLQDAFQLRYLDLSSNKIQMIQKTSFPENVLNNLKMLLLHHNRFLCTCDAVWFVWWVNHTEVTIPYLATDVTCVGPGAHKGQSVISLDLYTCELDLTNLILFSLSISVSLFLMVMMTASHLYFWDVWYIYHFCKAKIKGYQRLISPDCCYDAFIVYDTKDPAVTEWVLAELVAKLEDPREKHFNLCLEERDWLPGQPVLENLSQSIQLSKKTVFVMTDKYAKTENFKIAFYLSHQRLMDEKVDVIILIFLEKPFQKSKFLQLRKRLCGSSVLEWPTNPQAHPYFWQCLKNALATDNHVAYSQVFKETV

B16-F1 tumor = assay: Mouse B16 tumor model, intratumoral injection; assay type: in vivo, C57BL/6 mice; details: by day 28, 3 intra-tumoral injections, 40 μg in 100 μl

SMILES | complex formation with pDNA (retardation of pDNA migration in gel) (plasmid DNA) | transfection (SEAP reporter gene expression) (human HEK293 cell line) | transfection (SEAP reporter gene expression) [1] | TLR7 activity (NF-κB/AP-1-inducible SEAP reporter) (human TLR7) | survival of mice (B16-F1 tumor)
CCCCCCCCCCCCCCCCOP(=O)(CCCN[C@@H](CCCCNC(=O)CNC(=O)c1ccc(Cn2c(O)nc3c(N)nc(NCCCC)nc32)cc1)C(=O)NCCCNCCCCNCCCN)OCCCCCCCCCCCCCCCC [CL481, (S)-dihexadecyl 19-amino-5-(4-(2-(4-((6-amino-2-(butylamino)-8-hydroxy-9H-purin-9-yl)methyl)benzamido)acetamido)butyl)-6-oxo-4,7,11,16-tetraazanonadecylphosphonate] | inability to form complex with plasmid DNA | inability to transfect cells | inability to transfect cells | strong and specific TLR7 activity | 
CCCCNc1nc(N)c2nc(O)n(Cc3ccc(C(=O)NCC(=O)NCCCC[C@H](NCCCP(=O)(OCCC(C)CCCC(C)CCCC(C)CCCC(C)C)OCCC(C)CCCC(C)CCCC(C)CCCC(C)C)C(=O)NCCCNCCCCNCCCN)cc3)c2n1 (stereo in doubt) [CL493, (S)-bis(3,7,11,15-tetramethylhexadecyl) 19-amino-5-(4-(2-(4-((6-amino-2-(butylamino)-8-hydroxy-9H-purin-9-yl)methyl)benzamido)acetamido)butyl)-6-oxo-4,7,11,16-tetraazanonadecylphosphonate] |  |  |  | strong and specific TLR7 activity | 
CCCCNc1nc(N)c2nc(O)n(Cc3ccc(C(=O)NCC(=O)NCCCNCCCCNCCCNCCCP(=O)(OCCC(C)CCCC(C)CCCC(C)CCCC(C)C)OCCC(C)CCCC(C)CCCC(C)CCCC(C)C)cc3)c2n1 (centres unmarked) [CL347, bis(3,7,11,15-tetramethylhexadecyl) 1-(4-((6-amino-2-(butylamino)-8-hydroxy-9H-purin-9-yl)methyl)phenyl)-1,4-dioxo-2,5,9,14,18-pentaazahenicosan-21-ylphosphonate] |  |  |  | strong and specific TLR7 activity | no survival
CCCCNc1nc(N)c2nc(O)n(Cc3ccc(C(=O)NCCCNCCCCNCCCNCCCP(=O)(OCCC(C)CCCC(C)CCCC(C)CCCC(C)C)OCCC(C)CCCC(C)CCCC(C)CCCC(C)C)cc3)c2n1 (centres unmarked) [CL346, bis(3,7,11,15-tetramethylhexadecyl) 1-(4-((6-amino-2-(butylamino)-8-hydroxy-9H-purin-9-yl)methyl)phenyl)-1-oxo-2,6,11,15-tetraazaoctadecan-18-ylphosphonate] |  |  |  | strong and specific TLR7 activity | 
